{"source": "patent US11583547B2", "about": "“Chemotherapy drug-sensitizing method, agent composition and use thereof” (FU JEN CATHOLIC UNIVERSITY, priority 2020, dated 2023)", "type_in_all_cases": "cell-based", "key": {"[1]": {"system": "BxPC-3 pancreatic cancer cells", "test": "western blot of cell apoptosis marker (cleaved PARP) after antagomiR-1976 transfection", "conditions": "BxPC-3, antagomiR-1976 transfection; FIG. 4A", "source_text": "(§1) FIGS. 4A and 4B are cell apoptosis charts of BxPC-3 and AsPC-1 pancreatic cancer cells with antagomiR-1976 transfection obtained from western blot analysis applied in the chemotherapy drug-sensitizing method in accordance with the preferred embodiment of the present invention. Referring now to FIG. 4A, by way of example, results of pancreatic cancer cell BxPC-3 applied in the chemotherapy drug-sensitizing method in accordance with the present invention are shown. Referring now to FIG. 4B, by way of example, results of pancreatic cancer cell AsPC-1 applied in the chemotherapy drug-sensitizing method in accordance with the present invention are shown."}, "[2]": {"system": "AsPC-1 pancreatic cancer cells", "test": "western blot of cell apoptosis marker (cleaved PARP) after antagomiR-1976 transfection", "conditions": "AsPC-1, antagomiR-1976 transfection; FIG. 4B", "source_text": "as §1"}, "pancreatic cancer cells": {"system": "pancreatic cancer cells", "test": "qPCR analysis of miR-1976 expression after gemcitabine induction", "conditions": "induction by gemcitabine; FIG. 1B", "source_text": "FIGS. 1A and 1B are microRNA expression charts released in extracellular vesicle and intracellular obtained from micro array analysis and qPCR analysis applied in the chemotherapy drug-sensitizing method in accordance with the preferred embodiment of the present invention."}}}
{"compound": "5′-ACAGCAAGGAGGGCAGGAGG-3′ (listed as RNA, chemistry not given here) [antagomiR-1976]", "values": [{"measurement": "amount of pancreatic cancer cell apoptosis marker (cleaved PARP)", "setting": "[1]", "result": "obviously increased"}, {"measurement": "amount of pancreatic cancer cell apoptosis marker (cleaved PARP)", "setting": "[2]", "result": "obviously increased"}]}
{"compound": "Nc1ccn([C@@H]2O[C@H](CO)[C@@H](O)C2(F)F)c(=O)n1", "note": "[gemcitabine]", "values": [{"measurement": "amount of miR-1976 in pancreatic cancer cells", "setting": "pancreatic cancer cells", "result": "selectively increased"}]}
